Test results published in patent US20260364134A1, “AGENT FOR SUPPRESSING AMYLOID BETA AGGREGATION/DEPOSITION AND AGENT FOR SUPPRESSING COGNITIVE FUNCTION DECLINE/IMPROVING COGNITIVE FUNCTION IN A SUBJECT” (KANEKA CORPORATION, priority 2023, published 2026).

Tests used:
[1] = molecular target: amyloid β (Aβ) in cerebral organoids (Homo sapiens, UniProt P05067); assay: Aβ aggregation/deposition suppression in cerebral organoids (QD-Aβ40/Aβ42, fluorescence microscopy); assay type: cell-based; conditions: Example 3, 24 hours after addition
Sequence of amyloid β (Aβ) in cerebral organoids (P05067 672-713): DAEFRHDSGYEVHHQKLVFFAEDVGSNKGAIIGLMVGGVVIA
Procedure: The end of a 1000-μl tip was cut off with sterilized scissors, and the organoids produced in Example 1 that had grown to a diameter of 1 mm or more were aspirated without disrupting them, and transferred to a U-bottom 96-well plate. […]
The next day, all of the culture supernatant was removed without aspirating the organoid, and 150 μl of fresh NbM medium was added. The cultured organoids were then observed and photographed under a fluorescence microscope.
Using a fluorescence microscope (BZ-X800 manufactured by KEYENCE CORPORATION), the cultured organoids in Example 2 were photographed in a bright field at a high resolution with an exposure time of 1/500 s to 1/2000 s, or at a high sensitivity with an exposure time of 1/2000 s to 1/5000 s, with Z stacks with a pitch of 20 μm. […] Subsequently, to observe the deposition of quantum dot-modified amyloid β in the cultured organoid, red fluorescence was observed using a TRITC lens at a high sensitivity with an exposure time of ¼ s to 1/8.5 s, and images were obtained according to the procedure described above.
Each of the images obtained above was analyzed as follows. […] The threshold of the loaded bright-field image was set to 200, and the organoid area (organoid surface area) was calculated. […]
The black balance level of image processing was adjusted for the fluorescent images of various tests. First, the negative control image was read out. […]

Aβ = conditions: cited from earlier work

- Aβ aggregation/deposition suppression rate in cerebral organoids ([1]; rosmarinic acid final 50 μM, QD-Aβ40 30 nM, Aβ42 10 μM): 3.9%
SMILES: O=C(/C=C/c1ccc(O)c(O)c1)O[C@H](Cc1ccc(O)c(O)c1)C(=O)O [rosmarinic acid, Rosmarinic acid]
- Effect of suppressing Aβ aggregation/deposition in cerebral organoids (in words) [1]: not a drug that has an effect of suppressing Aβ aggregation/deposition in cerebral organoids
- effect of suppressing Aβ aggregation (known) (Aβ): known to have an effect of suppressing Aβ aggregation
